According to patent US20050142537A1, “System and method for rapid detection of metabolic deviations of a biological sample” (priority 2003, published 2005):

System: E. coli
Assay: Impedance-based rapid detection of metabolic deviations (sensitivity testing) of a biological sample containing E. coli
Format: cell-based
Text: There is shown in FIG. 1, system 10 for rapid detection of metabolic deviations of a biological sample of this invention. System 10 includes control chamber 12 which receives biological sample 14 via fluidic channel 15. Control chamber 12 also includes spaced electrodes 16 and 18 which are used to measure the impedance of biological sample 14 disposed in control chamber 12, as discussed in further detail below. Biological sample 14 may be blood, urine, sputum, feces, spinal fluid, food, water, a solution containing one or more microbial organisms, or any other biological sample known to those skilled in the art. The microbial organisms in biological sample 14 may include any biological cell, such as Escherichia coli, Staphylococcus aureus, Enterococcus faecalis, Streptococcus pneumoniae, Neisseria gonorrhoeae, Mycobacterium tuberculosis, Saccharomyces cerevisiae, or any other microbial organism known to those skilled in the art. […]
System 10 includes measuring and detection device 28 connected to electrodes 16 and 18 of control chamber 12 by lines 29 and 31 and electrodes 24 and 26 of target chamber 22 by lines 33 and 35. […] Measuring and detection device 28 then compares the measured second impedances to the measured first impedances to determine if biological reagent 20 has induced any metabolic deviations to biological sample 14 in target chamber 22. […]

CCn1cc(C(=O)O)c(=O)c2cc(F)c(N3CCNCC3)cc21 [Norfloxacin]
time at which sensitivity of the biological sample to the biological reagent is detected (FIG. 7 dashed line 404): about 40 minutes
sensitivity of the biological sample to the biological reagent (measured impedance response vs control sample, FIG. 7 curve 402 vs curve 400): sensitive
